Reference: US7118895B2, “Process for producing aglycon by using diglycosidase and flavor-improved food containing the aglycon and converting agent to be used in the process” (Amano Enzyme Inc., priority 2000, dated 2006)

System: Crude diglycosidase
Assay: Examination of temperature in the conversion into isoflavone aglycons by diglycosidase using soybean materials
Type: biochemical, Penicillium multicolor IAM7153
Design: Decomposition efficiency of glycitin family in roasted soy flour / Decomposition efficiency of daidzin family in roasted soy flour / Decomposition efficiency of genistin family in soymilk / Decomposition efficiency of daidzin family in soymilk / Decomposition efficiency of glycitin family in defatted soybean / Decomposition efficiency of daidzin family in defatted soybean: concentration or dose not given beside the values
Conditions: for maximum isolation of aglycons: reaction at 55° C. for 6 hours
Method: Into 400 μL of 20 mM acetate buffer of pH 4.0 was suspended 50 mg of each of various soybean materials (roasted soy flour (manufactured by Fuji Shokuryo K.K.), soymilk (manufactured by Gitoh Shokuhin K.K.), defatted soybean (manufactured by Fuji Seiyu K.K.), concentrated soybean protein (manufactured by Fuji Seiyu K.K.)), whereby a substrate solution was prepared. Crude diglycosidase was diluted with 20 mM acetate buffer of pH 4.0 to be the glycosidase activity of 1.88 AU/mL. Fifty μL of the enzyme solution was mixed with the substrate solution and the whole was reacted at 80, 65, 55, 45, 37, or 30° C. at the total volume of 500 μL. To the reaction mixture was added 700 μL of ethanol after 0, 1, 3, and 6 hours of the reaction. After stirring and ultrasonication, the mixture was subjected to centrifugal separation at 15,000 rpm and 4° C. for 10 minutes. The supernatant was filtered through a filter and the existence of isoflavone glycosides and aglycon isoflavones contained in the reaction mixture was detected by HLPC.

[1] = 30 °C, heat treatment of enzyme: no, 0 h
[2] = 30 °C, heat treatment of enzyme: no, 1 h
[3] = 30 °C, heat treatment of enzyme: no, 3 h
[4] = 30 °C, heat treatment of enzyme: no, 6 h
[5] = 30 °C, heat treatment of enzyme: yes, 6 h
[6] = 45 °C, heat treatment of enzyme: no, 0 h
[7] = 45 °C, heat treatment of enzyme: no, 1 h
[8] = 45 °C, heat treatment of enzyme: no, 3 h
[9] = 45 °C, heat treatment of enzyme: no, 6 h
[10] = 45 °C, heat treatment of enzyme: yes, 6 h
[11] = 55 °C, heat treatment of enzyme: no, 0 h
[12] = 55 °C, heat treatment of enzyme: no, 1 h
[13] = 55 °C, heat treatment of enzyme: no, 3 h
[14] = 55 °C, heat treatment of enzyme: no, 6 h
[15] = 55 °C, heat treatment of enzyme: yes, 6 h
[16] = 65 °C, heat treatment of enzyme: no, 0 h
[17] = 65 °C, heat treatment of enzyme: no, 1 h
[18] = 65 °C, heat treatment of enzyme: no, 3 h
[19] = 65 °C, heat treatment of enzyme: no, 6 h
[20] = 65 °C, heat treatment of enzyme: yes, 6 h
[21] = 80 °C, heat treatment of enzyme: no, 0 h
[22] = 80 °C, heat treatment of enzyme: no, 1 h
[23] = 80 °C, heat treatment of enzyme: no, 3 h
[24] = 80 °C, heat treatment of enzyme: no, 6 h
[25] = 80 °C, heat treatment of enzyme: yes, 6 h

- Decomposition efficiency of glycitin family in defatted soybean (30° C., heat treatment of enzyme no, reaction time 0 h): 38.7%
- Decomposition efficiency of glycitin family in defatted soybean (30° C., heat treatment of enzyme no, reaction time 1 h): 51.7%
- Decomposition efficiency of glycitin family in defatted soybean (30° C., heat treatment of enzyme no, reaction time 3 h): 55.4%
- Decomposition efficiency of glycitin family in defatted soybean (30° C., heat treatment of enzyme no, reaction time 6 h): 54.4%
- Decomposition efficiency of glycitin family in defatted soybean (30° C., heat treatment of enzyme yes, reaction time 6 h): 54.9%
- Decomposition efficiency of glycitin family in concentrated soybean protein [1]: 11.4%
- Decomposition efficiency of glycitin family in roasted soy flour [1]: 10.4%
- Decomposition efficiency of glycitin family in soymilk [1]: 8.1%
- Decomposition efficiency of glycitin family in concentrated soybean protein [2]: 17.5%
- Decomposition efficiency of glycitin family in roasted soy flour [2]: 31.5%
- Decomposition efficiency of glycitin family in soymilk [2]: 49.0%
- Decomposition efficiency of glycitin family in concentrated soybean protein [3]: 26.9%
- Decomposition efficiency of glycitin family in roasted soy flour [3]: 66.8%
- Decomposition efficiency of glycitin family in soymilk [3]: 60.4%
- Decomposition efficiency of glycitin family in concentrated soybean protein [4]: 40.3%
- Decomposition efficiency of glycitin family in roasted soy flour [4]: 80.9%
- Decomposition efficiency of glycitin family in soymilk [4]: 71.6%
- Decomposition efficiency of glycitin family in concentrated soybean protein [5]: 11.3%
- Decomposition efficiency of glycitin family in roasted soy flour [5]: 11.1%
- Decomposition efficiency of glycitin family in soymilk [5]: 7.9%
- Decomposition efficiency of glycitin family in defatted soybean (45° C., heat treatment of enzyme no, reaction time 0 h): 34.8%
- Decomposition efficiency of glycitin family in defatted soybean (45° C., heat treatment of enzyme no, reaction time 1 h): 55.7%
- Decomposition efficiency of glycitin family in defatted soybean (45° C., heat treatment of enzyme no, reaction time 3 h): 55.2%
- Decomposition efficiency of glycitin family in defatted soybean (45° C., heat treatment of enzyme no, reaction time 6 h): 59.0%
- Decomposition efficiency of glycitin family in defatted soybean (45° C., heat treatment of enzyme yes, reaction time 6 h): 55.8%
- Decomposition efficiency of glycitin family in concentrated soybean protein [6]: 11.4%
- Decomposition efficiency of glycitin family in roasted soy flour [6]: 10.4%
- Decomposition efficiency of glycitin family in soymilk [6]: 8.2%
- Decomposition efficiency of glycitin family in concentrated soybean protein [7]: 35.2%
- Decomposition efficiency of glycitin family in roasted soy flour [7]: 60.2%
- Decomposition efficiency of glycitin family in soymilk [7]: 53.8%
- Decomposition efficiency of glycitin family in concentrated soybean protein [8]: 49.6%
- Decomposition efficiency of glycitin family in roasted soy flour [8]: 67.4%
- Decomposition efficiency of glycitin family in soymilk [8]: 70.1%
- Decomposition efficiency of glycitin family in concentrated soybean protein [9]: 64.9%
- Decomposition efficiency of glycitin family in roasted soy flour [9]: 85.0%
- Decomposition efficiency of glycitin family in soymilk [9]: 84.7%
- Decomposition efficiency of glycitin family in concentrated soybean protein [10]: 11.3%
- Decomposition efficiency of glycitin family in roasted soy flour [10]: 13.4%
- Decomposition efficiency of glycitin family in soymilk [10]: 7.4%
- Decomposition efficiency of glycitin family in defatted soybean (55° C., heat treatment of enzyme no, reaction time 0 h): 38.7%
- Decomposition efficiency of glycitin family in defatted soybean (55° C., heat treatment of enzyme no, reaction time 1 h): 55.2%
- Decomposition efficiency of glycitin family in defatted soybean (55° C., heat treatment of enzyme no, reaction time 3 h): 57.4%
- Decomposition efficiency of glycitin family in defatted soybean (55° C., heat treatment of enzyme no, reaction time 6 h): 57.3%
- Decomposition efficiency of glycitin family in defatted soybean (55° C., heat treatment of enzyme yes, reaction time 6 h): 54.5%
- Decomposition efficiency of glycitin family in concentrated soybean protein [11]: 11.2%
- Decomposition efficiency of glycitin family in roasted soy flour [11]: 10.4%
- Decomposition efficiency of glycitin family in soymilk [11]: 7.6%
- Decomposition efficiency of glycitin family in concentrated soybean protein [12]: 51.4%
- Decomposition efficiency of glycitin family in roasted soy flour [12]: 69.9%
- Decomposition efficiency of glycitin family in soymilk [12]: 60.9%
- Decomposition efficiency of glycitin family in concentrated soybean protein [13]: 69.7%
- Decomposition efficiency of glycitin family in roasted soy flour [13]: 87.9%
- Decomposition efficiency of glycitin family in soymilk [13]: 72.3%
- Decomposition efficiency of glycitin family in concentrated soybean protein [14]: 72.7%
- Decomposition efficiency of glycitin family in roasted soy flour [14]: 94.0%
- Decomposition efficiency of glycitin family in soymilk [14]: 83.5%
- Decomposition efficiency of glycitin family in concentrated soybean protein [15]: 11.3%
- Decomposition efficiency of glycitin family in roasted soy flour [15]: 11.0%
- Decomposition efficiency of glycitin family in soymilk [15]: 6.7%
- Decomposition efficiency of glycitin family in defatted soybean (65° C., heat treatment of enzyme no, reaction time 0 h): 34.8%
- Decomposition efficiency of glycitin family in defatted soybean (65° C., heat treatment of enzyme no, reaction time 1 h): 54.7%
- Decomposition efficiency of glycitin family in defatted soybean (65° C., heat treatment of enzyme no, reaction time 3 h): 57.9%
- Decomposition efficiency of glycitin family in defatted soybean (65° C., heat treatment of enzyme no, reaction time 6 h): 60.0%
- Decomposition efficiency of glycitin family in defatted soybean (65° C., heat treatment of enzyme yes, reaction time 6 h): 51.2%
- Decomposition efficiency of glycitin family in concentrated soybean protein [16]: 11.4%
- Decomposition efficiency of glycitin family in roasted soy flour [16]: 10.4%
- Decomposition efficiency of glycitin family in soymilk [16]: 8.1%
- Decomposition efficiency of glycitin family in concentrated soybean protein [17]: 58.6%
- Decomposition efficiency of glycitin family in roasted soy flour [17]: 65.5%
- Decomposition efficiency of glycitin family in soymilk [17]: 57.6%
- Decomposition efficiency of glycitin family in concentrated soybean protein [18]: 64.0%
- Decomposition efficiency of glycitin family in roasted soy flour [18]: 69.0%
- Decomposition efficiency of glycitin family in soymilk [18]: 65.7%
- Decomposition efficiency of glycitin family in concentrated soybean protein [19]: 63.8%
- Decomposition efficiency of glycitin family in roasted soy flour [19]: 71.0%
- Decomposition efficiency of glycitin family in soymilk [19]: 74.5%
- Decomposition efficiency of glycitin family in concentrated soybean protein [20]: 11.4%
- Decomposition efficiency of glycitin family in roasted soy flour [20]: 10.4%
- Decomposition efficiency of glycitin family in soymilk [20]: 7.2%
- Decomposition efficiency of glycitin family in defatted soybean (80° C., heat treatment of enzyme no, reaction time 0 h): 34.8%
- Decomposition efficiency of glycitin family in defatted soybean (80° C., heat treatment of enzyme no, reaction time 1 h): 53.9%
- Decomposition efficiency of glycitin family in defatted soybean (80° C., heat treatment of enzyme no, reaction time 3 h): 55.0%
- Decomposition efficiency of glycitin family in defatted soybean (80° C., heat treatment of enzyme no, reaction time 6 h): 59.7%
- Decomposition efficiency of glycitin family in defatted soybean (80° C., heat treatment of enzyme yes, reaction time 6 h): 51.9%
- Decomposition efficiency of glycitin family in concentrated soybean protein [21]: 11.4%
- Decomposition efficiency of glycitin family in roasted soy flour [21]: 10.4%
- Decomposition efficiency of glycitin family in soymilk [21]: 8.2%
- Decomposition efficiency of glycitin family in concentrated soybean protein [22]: 23.8%
- Decomposition efficiency of glycitin family in roasted soy flour [22]: 40.8%
- Decomposition efficiency of glycitin family in soymilk [22]: 45.7%
- Decomposition efficiency of glycitin family in concentrated soybean protein [23]: 23.4%
- Decomposition efficiency of glycitin family in roasted soy flour [23]: 41.1%
- Decomposition efficiency of glycitin family in soymilk [23]: 44.9%
- Decomposition efficiency of glycitin family in concentrated soybean protein [24]: 22.8%
- Decomposition efficiency of glycitin family in roasted soy flour [24]: 30.7%
- Decomposition efficiency of glycitin family in soymilk [24]: 34.4%
- Decomposition efficiency of glycitin family in concentrated soybean protein [25]: 11.4%
- Decomposition efficiency of glycitin family in roasted soy flour [25]: 9.9%
- Decomposition efficiency of glycitin family in soymilk [25]: 9.3%
- maximum isolation of aglycons (concentrated soybean protein): about 73%
- maximum isolation of aglycons (defatted soybean): about 57%
- maximum isolation of aglycons (soy flour): about 94%
- maximum isolation of aglycons (soymilk): about 84%
Compound: COc1cc2c(=O)c(-c3ccc(O)cc3)coc2cc1O [glycitein]
